Experiments:
CDK2/CyclinA2 = CDK2/CyclinA2 (Homo sapiens, UniProt P24941); assay: ADP Glo kinase assay, CDK2/CyclinA2; type: biochemical; conditions: for remaining activity at 1 µM: compound at 1 μM, read-out: Residual enzymatic activity (%) at 1 μM, CDK2 A
Procedure: (§1) Test compounds are used in 1:3 serial dilutions for 10 concentrations (from 10-0.0005 μM) in 0.5% DMSO. […] The kinase reactions are run for optimised time period at room temperature and then the reaction is stopped by adding 5 μL of ADP Glo reagent.

CDK1/CyclinB = CDK1/CyclinB (Homo sapiens, UniProt P06493); assay: ADP Glo kinase assay, CDK1/CyclinB; type: biochemical; conditions: compound at 1 μM, read-out: Residual enzymatic activity (%) at 1 μM, CDK1 B
Procedure: as §1

CDK7/CyclinH/Mat1 = CDK7/CyclinH/Mat1 (Homo sapiens, UniProt P50613); assay: ADP Glo kinase assay, CDK7/CyclinH/Mat1; type: biochemical; conditions: compound at 1 μM, read-out: Residual enzymatic activity (%) at 1 μM, CDK7 H
Procedure: as §1

CDK9/CyclinT1 = CDK9/CyclinT1 (Homo sapiens, UniProt P50750); assay: ADP Glo kinase assay, CDK9/CyclinT1; type: biochemical; conditions: CDK9/CyclinT1; Km ATP; read-out: Enzymatic inhibition, Ki, CDK9 T1
Procedure: as §1

FLT3-ITD = molecular target: T1, FLT3-ITD (Homo sapiens, UniProt P36888); assay: ADP Glo kinase assay, FLT3-ITD; type: biochemical; conditions: Km ATP 100 μM, read-out: Enzymatic inhibition, Ki, FLT3-ITD
T1 sequence (P36888 1-993): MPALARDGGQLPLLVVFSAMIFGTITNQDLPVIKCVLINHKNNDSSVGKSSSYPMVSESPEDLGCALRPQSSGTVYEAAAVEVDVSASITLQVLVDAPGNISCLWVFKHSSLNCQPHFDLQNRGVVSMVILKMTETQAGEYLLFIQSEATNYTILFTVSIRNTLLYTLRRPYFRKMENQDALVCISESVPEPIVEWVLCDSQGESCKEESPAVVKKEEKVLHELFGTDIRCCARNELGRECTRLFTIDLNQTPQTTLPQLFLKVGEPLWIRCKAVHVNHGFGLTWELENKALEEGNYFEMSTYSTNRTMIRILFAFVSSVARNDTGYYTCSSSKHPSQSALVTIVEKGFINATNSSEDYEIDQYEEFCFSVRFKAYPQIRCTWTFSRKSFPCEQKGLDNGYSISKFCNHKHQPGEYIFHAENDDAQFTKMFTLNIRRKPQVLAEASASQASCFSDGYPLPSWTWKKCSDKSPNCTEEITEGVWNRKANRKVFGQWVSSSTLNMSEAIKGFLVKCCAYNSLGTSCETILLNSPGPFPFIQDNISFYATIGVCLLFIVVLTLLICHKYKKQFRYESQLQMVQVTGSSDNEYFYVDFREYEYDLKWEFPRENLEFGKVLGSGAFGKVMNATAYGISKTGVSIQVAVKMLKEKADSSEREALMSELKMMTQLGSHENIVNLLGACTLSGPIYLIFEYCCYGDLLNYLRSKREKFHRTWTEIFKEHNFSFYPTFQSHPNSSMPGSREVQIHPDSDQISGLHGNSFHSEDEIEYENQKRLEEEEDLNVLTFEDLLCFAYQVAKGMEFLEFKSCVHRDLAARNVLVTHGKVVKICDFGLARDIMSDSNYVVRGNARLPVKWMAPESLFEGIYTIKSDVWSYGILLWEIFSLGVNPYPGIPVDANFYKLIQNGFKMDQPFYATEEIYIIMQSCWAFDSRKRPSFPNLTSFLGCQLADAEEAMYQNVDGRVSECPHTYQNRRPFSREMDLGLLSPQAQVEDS
Procedure: as §1

CDK6/CyclinD3 = CDK6/CyclinD3 (Homo sapiens, UniProt Q00534); assay: ADP Glo kinase assay, CDK6/CyclinD3; type: biochemical; conditions: compound at 1 μM, read-out: Residual enzymatic activity (%) at 1 μM, CDK6 D3
Procedure: as §1

MV-4-11 = assay: Proliferation assay (resazurin, leukemia cell lines), MV-4-11; type: cell-based; conditions: Homo sapiens, MV4-11, read-out: 72 h Growth inhibition GI50, MV-4-11 cells
Description: The following compounds were used as comparators.

Sequence of CDK9/CyclinT1 (P50750 whole entry, species assumed): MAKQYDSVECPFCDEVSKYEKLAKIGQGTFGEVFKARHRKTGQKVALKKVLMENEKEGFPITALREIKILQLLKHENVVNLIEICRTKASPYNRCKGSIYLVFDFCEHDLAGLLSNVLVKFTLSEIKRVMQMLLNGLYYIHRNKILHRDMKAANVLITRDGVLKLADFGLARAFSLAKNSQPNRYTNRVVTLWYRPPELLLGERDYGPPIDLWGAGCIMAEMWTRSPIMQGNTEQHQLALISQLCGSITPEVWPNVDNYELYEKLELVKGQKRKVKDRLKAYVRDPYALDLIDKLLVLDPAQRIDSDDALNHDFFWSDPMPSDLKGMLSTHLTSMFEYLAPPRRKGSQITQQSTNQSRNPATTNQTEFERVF
Sequence of CDK9/CyclinT1 (O60563 whole entry partner, species assumed): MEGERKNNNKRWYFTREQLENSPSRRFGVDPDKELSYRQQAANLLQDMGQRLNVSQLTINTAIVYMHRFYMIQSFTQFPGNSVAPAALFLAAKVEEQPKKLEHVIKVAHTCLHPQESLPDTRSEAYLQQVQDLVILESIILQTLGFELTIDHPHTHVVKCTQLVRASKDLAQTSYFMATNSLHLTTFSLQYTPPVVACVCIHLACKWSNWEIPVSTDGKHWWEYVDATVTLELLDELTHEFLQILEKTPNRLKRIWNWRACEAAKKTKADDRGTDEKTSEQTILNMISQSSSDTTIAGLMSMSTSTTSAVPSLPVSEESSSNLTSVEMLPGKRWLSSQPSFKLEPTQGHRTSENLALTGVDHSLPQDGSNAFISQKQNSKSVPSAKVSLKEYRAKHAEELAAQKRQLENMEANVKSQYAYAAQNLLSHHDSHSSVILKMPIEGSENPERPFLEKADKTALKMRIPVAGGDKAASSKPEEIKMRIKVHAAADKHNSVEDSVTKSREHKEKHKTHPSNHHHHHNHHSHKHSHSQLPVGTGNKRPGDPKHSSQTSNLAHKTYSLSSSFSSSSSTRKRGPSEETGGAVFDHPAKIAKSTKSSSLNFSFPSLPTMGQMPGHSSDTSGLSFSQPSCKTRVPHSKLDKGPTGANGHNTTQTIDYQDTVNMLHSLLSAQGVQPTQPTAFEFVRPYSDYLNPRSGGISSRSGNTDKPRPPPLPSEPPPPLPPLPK
Sequence of CDK7/CyclinH/Mat1 (P50613 whole entry, species assumed): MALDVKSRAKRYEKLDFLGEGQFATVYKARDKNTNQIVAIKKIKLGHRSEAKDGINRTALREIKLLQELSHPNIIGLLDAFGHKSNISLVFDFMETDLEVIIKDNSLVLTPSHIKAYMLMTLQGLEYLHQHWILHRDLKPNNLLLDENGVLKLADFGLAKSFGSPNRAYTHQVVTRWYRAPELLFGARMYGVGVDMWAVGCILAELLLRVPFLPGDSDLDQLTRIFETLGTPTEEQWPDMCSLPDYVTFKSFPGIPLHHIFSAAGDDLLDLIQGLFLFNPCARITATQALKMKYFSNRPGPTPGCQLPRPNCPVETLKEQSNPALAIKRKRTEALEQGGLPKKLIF
Sequence of CDK7/CyclinH/Mat1 (P51946 whole entry partner, species assumed): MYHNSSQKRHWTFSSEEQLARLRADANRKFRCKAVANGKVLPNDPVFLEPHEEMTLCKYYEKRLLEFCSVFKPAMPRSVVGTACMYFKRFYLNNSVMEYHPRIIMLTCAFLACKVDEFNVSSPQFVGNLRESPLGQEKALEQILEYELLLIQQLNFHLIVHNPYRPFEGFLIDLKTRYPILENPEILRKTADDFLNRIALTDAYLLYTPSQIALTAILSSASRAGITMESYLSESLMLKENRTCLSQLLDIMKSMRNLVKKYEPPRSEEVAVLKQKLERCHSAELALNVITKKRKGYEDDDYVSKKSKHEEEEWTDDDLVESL
Sequence of CDK7/CyclinH/Mat1 (P51948 whole entry partner, species assumed): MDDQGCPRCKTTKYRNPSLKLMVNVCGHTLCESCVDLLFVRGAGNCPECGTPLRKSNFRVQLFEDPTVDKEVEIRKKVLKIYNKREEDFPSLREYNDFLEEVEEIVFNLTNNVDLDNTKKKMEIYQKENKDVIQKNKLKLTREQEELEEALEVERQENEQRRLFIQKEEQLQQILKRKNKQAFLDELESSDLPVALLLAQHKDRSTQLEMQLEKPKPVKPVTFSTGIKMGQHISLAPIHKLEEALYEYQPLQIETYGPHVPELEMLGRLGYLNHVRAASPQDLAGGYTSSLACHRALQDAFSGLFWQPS
Sequence of CDK6/CyclinD3 (Q00534 whole entry, species assumed): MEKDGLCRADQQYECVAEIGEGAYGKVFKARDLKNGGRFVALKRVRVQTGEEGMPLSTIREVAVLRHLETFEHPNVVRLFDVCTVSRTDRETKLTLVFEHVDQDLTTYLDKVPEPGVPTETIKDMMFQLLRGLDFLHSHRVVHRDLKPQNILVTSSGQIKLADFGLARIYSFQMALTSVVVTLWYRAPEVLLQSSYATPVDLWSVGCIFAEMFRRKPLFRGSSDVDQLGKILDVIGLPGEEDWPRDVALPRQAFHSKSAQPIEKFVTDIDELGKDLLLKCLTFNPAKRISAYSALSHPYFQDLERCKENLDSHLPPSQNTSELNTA
Sequence of CDK6/CyclinD3 (P30281 whole entry partner, species assumed): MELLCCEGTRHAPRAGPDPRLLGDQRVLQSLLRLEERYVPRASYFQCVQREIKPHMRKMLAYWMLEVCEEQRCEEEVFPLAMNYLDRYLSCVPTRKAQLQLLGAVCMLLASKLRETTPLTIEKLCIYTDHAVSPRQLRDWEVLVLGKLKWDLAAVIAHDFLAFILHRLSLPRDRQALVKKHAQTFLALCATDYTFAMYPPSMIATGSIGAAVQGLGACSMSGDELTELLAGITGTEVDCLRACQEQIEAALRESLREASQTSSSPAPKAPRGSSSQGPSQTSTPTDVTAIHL
Sequence of CDK1/CyclinB (P06493 whole entry, species assumed): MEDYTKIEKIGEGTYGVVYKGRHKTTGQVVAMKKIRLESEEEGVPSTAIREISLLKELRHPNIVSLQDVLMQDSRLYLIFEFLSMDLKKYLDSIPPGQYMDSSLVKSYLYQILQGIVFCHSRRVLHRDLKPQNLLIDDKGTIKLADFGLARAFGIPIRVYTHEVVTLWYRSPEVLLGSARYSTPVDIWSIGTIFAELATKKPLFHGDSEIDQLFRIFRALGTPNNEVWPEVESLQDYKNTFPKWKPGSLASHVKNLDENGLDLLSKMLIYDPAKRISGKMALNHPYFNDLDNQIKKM
Sequence of CDK1/CyclinB (P14635 whole entry partner, species assumed): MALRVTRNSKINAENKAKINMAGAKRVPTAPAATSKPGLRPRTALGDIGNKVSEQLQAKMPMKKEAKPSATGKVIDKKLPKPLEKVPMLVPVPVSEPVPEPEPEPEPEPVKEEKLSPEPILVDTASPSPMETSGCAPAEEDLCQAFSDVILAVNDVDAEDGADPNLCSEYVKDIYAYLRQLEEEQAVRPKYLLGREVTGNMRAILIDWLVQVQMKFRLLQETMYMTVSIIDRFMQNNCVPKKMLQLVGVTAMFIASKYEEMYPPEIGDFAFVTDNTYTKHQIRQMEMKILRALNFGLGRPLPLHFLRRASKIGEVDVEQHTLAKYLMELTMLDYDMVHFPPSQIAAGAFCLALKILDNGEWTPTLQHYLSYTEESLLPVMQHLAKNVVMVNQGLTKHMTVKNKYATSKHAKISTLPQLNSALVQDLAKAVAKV

remaining activity at 1 µM (CDK2/CyclinA2) [%] | remaining activity at 1 µM (CDK1/CyclinB) [%] | remaining activity at 1 µM (CDK7/CyclinH/Mat1) [%] | Ki (CDK9/CyclinT1) [µM] | Ki (FLT3-ITD) [µM] | remaining activity at 1 µM (CDK6/CyclinD3) [%] | GI50 (MV-4-11) [µM] | Ki (CDK2/CyclinA2; Km ATP, read-out: Enzymatic inhibition, Ki, CDK2 A) [µM] | SMILES
86 | 87 | 66 | 0.083 | – | – | – | – | CN1CCN(c2ccc(Nc3nccc(-c4cnc5ccc(-c6ccccc6)cn45)n3)nc2)CC1 [Comparator compound A, N-(5-(4-methylpiperazin-1-yl)pyridin-2-yl)-4-(6-phenylimidazo[1,2-a]pyridin-3-yl)pyrimidin-2-amine, reference compound]
97 | 62 | 99 | > 0.5 | 0.057 | 100 | 0.023 | – | CS(=O)(=O)N1CCN(c2ccc(Nc3nccc(-c4cnc5ccc(-c6cc7ccccc7o6)cn45)n3)cn2)CC1 [Compound 52, 4-(6-(Benzofuran-2-yl)imidazo[1,2-a]pyridin-3-yl)-N-(6-(4-(methylsulfonyl)piperazin-1-yl)pyridin-3-yl)pyrimidin-2-amine]
75 | 71 | 56 | 0.092 | 0.071 | 66 | 0.046 | – | CC(C)N1CCN(c2ccc(Nc3nccc(-c4cnc5ccc(-c6cncnc6)cn45)n3)cn2)CC1 [Compound 53, N-(6-(4-Isopropylpiperazin-1-yl)pyridin-3-yl)-4-(6-(pyrimidin-5-yl)imidazo[1,2-a]pyridin-3-yl)pyrimidin-2-amine]
62 | 50 | 38 | 0.036 | 0.028 | 55 | 0.116 | – | CC(C)N1CCN(c2ccc(Nc3nccc(-c4cnc5ccc(-c6ccc(F)nc6)cn45)n3)cn2)CC1 [Compound 55, 4-(6-(6-Fluoropyridin-3-yl)imidazo[1,2-a]pyridin-3-yl)-N-(6-(4-isopropylpiperazin-1-yl)-pyridin-3-yl)pyrimidin-2-amine]
36 | 78 | 94 | 0.38 | 0.084 | 96 | 0.023 | – | CS(=O)(=O)N1CCN(c2ccc(Nc3nccc(-c4cnc5ccc(-c6ccc(F)nc6)cn45)n3)cn2)CC1 [Compound 56, 4-(6-(6-Fluoropyridin-3-yl)imidazo[1,2-a]pyridin-3-yl)-N-(6-(4-(methylsulfonyl)piperazin-1-yl)pyridin-3-yl)pyrimidin-2-amine]
– | 57 | 88 | 0.103 | 0.04 | 93 | 0.03 | 0.056 | Brc1ccc2ncc(-c3ccnc(Nc4ccc(NC5CCOCC5)nc4)n3)n2c1 [Compound 57, N^5-(4-(6-Bromoimidazo[1,2-a]pyridin-3-yl)pyrimidin-2-yl)-N^2-(tetrahydro-2H-pyran-4-yl)pyridine-2,5-diamine]
91 | 61 | 100 | 0.509 | 0.142 | 100 | 0.02 | – | CCS(=O)(=O)N1CCN(c2ccc(Nc3nccc(-c4cnc5ccc(-c6ccccc6)cn45)n3)cn2)CC1 [Compound 60, N-(6-(4-(Ethylsulfonyl)piperazin-1-yl)pyridin-3-yl)-4-(6-phenylimidazo[1,2-a]pyridin-3-yl)pyrimidin-2-amine]
71 | 38 | 57 | 0.428 | 0.149 | 72 | 0.02 | – | CCS(=O)(=O)N1CCN(c2ccc(Nc3nccc(-c4cnc5ccc(-c6ccc(F)nc6)cn45)n3)cn2)CC1 [Compound 61, N-(6-(4-(Ethylsulfonyl)piperazin-1-yl)pyridin-3-yl)-4-(6-(6-fluoropyridin-3-yl)imidazo[1,2-a]pyridin-3-yl)pyrimidin-2-amine]
57 | 39 | 60 | 0.541 | 0.188 | 76 | 0.052 | – | O=C(c1ccco1)N1CCN(c2ccc(Nc3nccc(-c4cnc5ccc(Br)cn45)n3)cn2)CC1 [Compound 62, (4-(5-((4-(6-Bromoimidazo[1,2-a]pyridin-3-yl)pyrimidin-2-yl)amino)pyridin-2-yl)piperazin-1-yl)(furan-2-yl)methanone]
49 | 26 | 93 | 0.242 | 0.082 | 100 | 0.025 | – | O=C(c1ccco1)N1CCN(c2ccc(Nc3nccc(-c4cnc5ccc(-c6ccccc6)cn45)n3)cn2)CC1 [Compound 63, Furan-2-yl(4-(5-((4-(6-phenylimidazo[1,2-a]pyridin-3-yl)pyrimidin-2-yl)amino)pyridin-2-yl)piperazin-1-yl)methanone]
90 | 57 | 38 | 0.026 | 0.006 | 66 | 0.002 | – | COc1cc(F)cc(-c2ccc3ncc(-c4ccnc(Nc5ccc(N6CCN(C)CC6)nc5)n4)n3c2)c1 [Compound 64, 4-(6-(3-Fluoro-5-methoxyphenyl)imidazo[1,2-a]pyridin-3-yl)-N-(6-(4-methylpiperazin-1-yl)pyridin-3-yl)pyrimidin-2-amine]
73 | 76 | 64 | 0.468 | 0.22 | 79 | 0.017 | – | CN(C)c1ccc(Nc2nccc(-c3cnc4ccc(-c5ccccc5)cn34)n2)cn1 [Compound 66, N^2,N^2-Dimethyl-N^5-(4-(6-phenylimidazo[1,2-a]pyridin-3-yl)pyrimidin-2-yl)pyridine-2,5-diamine]
93 | 67 | 68 | 1.63 | > 0.5 | 78 | 0.362 | – | CN(C)c1ccc(Nc2nccc(-c3cnc4ccc(C5=CCN(C(=O)OC(C)(C)C)CC5)cn34)n2)cn1 [Compound 67, Tert-butyl 4-(3-(2-((6-(dimethylamino)pyridin-3-yl)amino)pyrimidin-4-yl)imidazo[1,2-a]pyridin-6-yl)-3,6-dihydropyridine-1(2H)-carboxylate]
61 | 37 | 71 | 0.174 | 0.062 | 81 | 0.013 | – | CN(C)c1ccc(Nc2nccc(-c3cnc4ccc(-c5ccc(F)nc5)cn34)n2)cn1 [Compound 68, N^5-(4-(6-(6-Fluoropyridin-3-yl)imidazo[1,2-a]pyridin-3-yl)pyrimidin-2-yl)-N^2,N^2-dimethylpyridine-2,5-diamine]
